Assay results from patent US20250074901A1, “NOVEL HETEROARYL COMPOUNDS” (ICAGEN, LLC, priority 2021, published 2025).

Molecular target: T1, Kv7.2 (Homo sapiens, UniProt O43526)
T1 construct: expressed in transfected cells
Experiment: Activation of Kv7.2 (in vitro assay, concentration response curve)
Assay type: cell-based
Settings: for Emax: Kv7.2 activation max %; for EC50: activation of Kv7.2
How it was run: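 Agonist activity was measured in vitro across a range of compound concentrations and plotted as a sigmoidal concentration–response curve. EC50 is the concentration giving 50% of that compound's own maximal response (Emax).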

Compound	Emax [%]	EC50 [nM]
COc1cc(CNC(=O)N[C@H]2C[C@H](C(F)(F)F)C2)ccn1 [Example 128, 1-[(2-methoxypyridin-4-yl)methyl]-3-[(1r,3r)-3-(trifluoromethyl)cyclobutyl]urea]	75	5360
O=C(NCc1ccnc(OC(F)F)c1)NC1CCC1 [Example 45, 1-cyclobutyl-3-[[2-(difluoromethoxy)pyridin-4-yl]methyl]urea]	62	1230
O=C(NCc1ccnc(Br)c1)N[C@H]1C[C@@H]2CC[C@H]1C2 (racemic) [Example 27, 1-[(2-bromopyridin-4-yl)methyl]-3-[rac-(1R,2R,4S)-2-bicyclo[2.2.1]heptanyl]urea]	76	2690
O=C(NCc1ccnc(OC(F)F)c1)N[C@H]1CC[C@H](OC(F)F)CC1 [Example 266, 1-[(1r,4r)-4-(difluoromethoxy)cyclohexyl]-3-[[2-(difluoromethoxy)pyridin-4-yl]methyl]urea]	49	300
COC1(CNC(=O)NCc2ccnc(OC(F)F)c2)CCC1 [Example 38, 1-[[2-(difluoromethoxy)pyridin-4-yl]methyl]-3-[(1-methoxycyclobutyl)methyl]urea]	73	3730
N#Cc1cc(CNC(=O)N[C@H]2C[C@@H]3CC[C@H]2C3)ccn1 (racemic) [Example 34, 1-[(2-cyanopyridin-4-yl)methyl]-3-[rac-(1R,2R,4S)-2-bicyclo[2.2.1]heptanyl]urea]	49	2770
O=C(NCc1ccnc(OC(F)F)c1)N[C@@H]1CC[C@@H]2[C@H]1C2(F)F [Example 133, 1-[(1R,2R,5R)-6,6-difluoro-2-bicyclo[3.1.0]hexanyl]-3-[[2-(difluoromethoxy)pyridin-4-yl]methyl]urea]	62	600
O=C(Nc1cccc(Cl)c1)NC(CO)c1ccnc(OCC(F)F)c1 (centres unmarked) [Example 259, 1-(3-chlorophenyl)-3-[1-[2-(2,2-difluoroethoxy)pyridin-4-yl]-2-hydroxyethyl]urea]	63	240
C[C@@H](O)C(NC(=O)N[C@H]1C[C@H](C(F)(F)F)C1)c1ccnc(OC(F)F)c1 (stereo partly drawn) [Example 286, 1-[(2R)-1-[2-(difluoromethoxy)pyridin-4-yl]-2-hydroxypropyl]-3-[(1r,3r)-3-(trifluoromethyl)cyclobutyl]urea]	66	550
O=C(NCc1ccnc(OC(F)F)c1)N[C@@H]1[C@H]2CCC(F)(F)[C@H]21 (racemic) [Example 172, 1-[[2-(difluoromethoxy)pyridin-4-yl]methyl]-3-[rac-(1R,5S,6R)-2,2-difluoro-6-bicyclo[3.1.0]hexanyl]urea]	66	460
O=C(NCc1ccnc(OC2CC(F)(F)C2)c1)N[C@H]1C[C@H](C(F)(F)F)C1 [Example 209, 1-[[2-(3,3-difluorocyclobutyl)oxypyridin-4-yl]methyl]-3-[(1r,3r)-3-(trifluoromethyl)cyclobutyl]urea]	71	490
CC(NC(=O)NCc1ccnc(OC(F)F)c1)C1CC2CCC1C2 (centres unmarked) [Example 24, 1-[1-(2-bicyclo[2.2.1]heptanyl)ethyl]-3-[[2-(difluoromethoxy)pyridin-4-yl]methyl]urea]	76	20
O=C(NCc1ccnc(OC(F)F)c1)Nc1cccc(F)c1F [Example 247, 1-[[2-(difluoromethoxy)pyridin-4-yl]methyl]-3-(2,3-difluorophenyl)urea]	53	90
O=C(NCc1ccnc(OC(F)F)c1)N[C@H]1C[C@@H]2C[C@H]1[C@H](O)C2 (racemic) [Example 107, 1-[[2-(difluoromethoxy)pyridin-4-yl]methyl]-3-[rac-(1R,2S,4S,6R)-6-hydroxy-2-bicyclo[2.2.1]heptanyl]urea]	95	1700
CC1(C)CC[C@H](O)[C@@H](NC(=O)NCc2ccnc(OC(F)F)c2)C1 (racemic) [Example 101, 1-[[2-(difluoromethoxy)pyridin-4-yl]methyl]-3-[rac-(1R,2R)-2-hydroxy-5,5-dimethylcyclohexyl]urea]	72	1200
C#CC1CC(NC(=O)NCc2ccnc(OC(F)F)c2)C1 (centres unmarked) [Example 66, 1-[[2-(difluoromethoxy)pyridin-4-yl]methyl]-3-(3-ethynylcyclobutyl) urea]	56	530
O=C(NCc1ccnc(OC(F)F)c1)N[C@@H]1CCOc2ccccc21 [Example 23, 1-[[2-(difluoromethoxy)pyridin-4-yl]methyl]-3-[(4R)-3,4-dihydro-2H-chromen-4-yl]urea]	52	130
Cc1cccc(NC(=O)NC(CO)c2ccnc(OC(F)F)c2)c1 (centres unmarked) [Example 280, 1-[1-[2-(difluoromethoxy)pyridin-4-yl]-2-hydroxyethyl]-3-(3-methylphenyl)urea]	67	250
O=C(NCc1ccnc(OC(F)F)c1)NC[C@H]1C[C@@H](C(F)(F)F)C1 [Example 87, 1-[[2-(difluoromethoxy)pyridin-4-yl]methyl]-3-[[3-(1r,3r)-(trifluoromethyl)cyclobutyl]methyl]urea]	40	850

Compound	Emax [%]	EC50 [nM]
O=C(NCc1ccnc(OC(F)F)c1)NCC1CC(C(F)(F)F)C1 (centres unmarked) [Example 62, 1-[[2-(difluoromethoxy)pyridin-4-yl]methyl]-3-[[3-(trifluoromethyl)cyclobutyl]methyl]urea]	43	750
O=C(NCc1ccnc(OC(F)F)c1)NC(C1CCC1)C(F)(F)F (centres unmarked) [Example 152, 1-(1-cyclobutyl-2,2,2-trifluoroethyl)-3-[[2-(difluoromethoxy)pyridin-4-yl]methyl]urea]	64	140
O=C(NCc1ccnc(OC(F)F)c1)NC1COc2ccccc2C1 (centres unmarked) [Example 192, 1-[[2-(difluoromethoxy)pyridin-4-yl]methyl]-3-(3,4-dihydro-2H-chromen-3-yl)urea]	51	240
O=C(NCc1ccnc(OC(F)F)c1)NC1CC[C@@H]2CC[C@H]12 (mixture of isomers) [Example 196, 1-[[2-(difluoromethoxy)pyridin-4-yl]methyl]-3-[rac-(1R,5R)-2-bicyclo[3.2.0]heptanyl]urea]	75	70
O=C(NCc1ccnc(OC(F)F)c1)N[C@@H]1CCC[C@H](C(F)(F)F)C1 (racemic) [Example 138, 1-[[2-(difluoromethoxy)pyridin-4-yl]methyl]-3-[rac-(1R,3S)-3-(trifluoromethyl)cyclohexyl]urea]	40	100
O=C(NCc1ccnc(OC(F)F)c1)N[C@@H]1CCC(F)(F)C[C@H]1O (racemic) [Example 154, 1-[[2-(difluoromethoxy)pyridin-4-yl]methyl]-3-[rac-(1R,2R)-4,4-difluoro-2-hydroxycyclohexyl]urea]	60	2130
C[Si](C)(C)CCNC(=O)NCc1ccnc(OC(F)F)c1 [Example 212, 1-[[2-(difluoromethoxy)pyridin-4-yl]methyl]-3-(2-trimethylsilylethyl) urea]	82	400
O=C(NCc1ccnc(OC(F)F)c1)N[C@H]1CCCC(F)(F)C1 [Example 140, 1-[(1S)-3,3-difluorocyclohexyl]-3-[[2-(difluoromethoxy)pyridin-4-yl]methyl]urea]	42	100
O=C(NCc1ccnc(OC(F)F)c1)NC1(CC(F)(F)F)CC1 [Example 110, 1-[[2-(difluoromethoxy)pyridin-4-yl]methyl]-3-[1-(2,2,2-trifluoroethyl)cyclopropyl]urea]	40	1230
O=C(NCc1ccnc(OC(F)F)c1)N[C@H]1C[C@H](C(F)F)C1 [Example 136, 1-[[2-(difluoromethoxy)pyridin-4-yl]methyl]-3-[(1r,3r)-3-(difluoromethyl)cyclobutyl]urea]	50	280
O=C(NCc1ccnc(OCC(F)(F)F)c1)NCC1CC(C(F)(F)F)C1 (centres unmarked) [Example 71, 1-[[2-(2,2,2-trifluoroethoxy)pyridin-4-yl]methyl]-3-[[3-(trifluoromethyl)cyclobutyl]methyl]urea]	53	230
O=C(NCc1ccnc(OC(F)F)c1)N[C@@H](C(F)F)C1CC(F)(F)C1 [Example 230, 1-[(1R)-1-(3,3-difluorocyclobutyl)-2,2-difluoroethyl]-3-[[2-(difluoromethoxy)pyridin-4-yl]methyl]urea]	55	1090
O=C(NCc1ccnc(OC(F)F)c1)NC1C2CCC1CC(F)(F)C2 (racemic) [Example 197, 1-[[2-(difluoromethoxy)pyridin-4-yl]methyl]-3-[rac-(1R,5S)-3,3-difluoro-8-bicyclo[3.2.1]octanyl]urea]	54	500
N#CCOc1cc(CNC(=O)N[C@H]2C[C@H](C(F)(F)F)C2)ccn1 [Example 63, 1-[[2-(cyanomethoxy)pyridin-4-yl]methyl]-3-[(1r,3r)-3-(trifluoromethyl)cyclobutyl]urea]	66	250
O=C(NCc1ccnc(OC(F)F)c1)Nc1cccc(CF)c1 [Example 132, 1-[[2-(difluoromethoxy)pyridin-4-yl]methyl]-3-[3-(fluoromethyl)phenyl]urea]	43	1070
CC(F)COc1cc(CNC(=O)NC23CC(F)(C2)C3)ccn1 (centres unmarked) [Example 160, 1-(3-fluoro-1-bicyclo[1.1.1]pentanyl)-3-[[2-(2-fluoropropoxy)pyridin-4-yl]methyl]urea]	61	6310
Cc1cccc(NC(=O)NCc2ccnc(OC(F)F)c2)c1 [Example 126, 1-[[2-(difluoromethoxy)pyridin-4-yl]methyl]-3-(3-methylphenyl)urea]	50	650
O=C(NCc1ccnc(OC(F)F)c1)N[C@@H]1CCC(F)(F)C1 [Example 115, 1-[(1R)-3,3-difluorocyclopentyl]-3-[[2-(difluoromethoxy)pyridin-4-yl]methyl]urea]	48	330
